Data set [1] concerns the target T1, HER2 kinase (Homo sapiens, UniProt P04626).
T1 construct: purchased Carna Biosciences 08-016
The data set is described as follows: HER2 kinase assay (ULight/PT66 TR-FRET). Format: biochemical. A digest of the protocol: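 HER2 kinase preincubated 5 min with compounds (11-point 3-fold series, duplicates), then reacted 120 min at room temperature with ATP and ULight-poly GT peptide, each prepared at 4× working concentration (40 μM ATP, 400 nM substrate, 40 nM kinase). PT66 antibody added for 60 min, TR-FRET read; IC50 from inhibition curves.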
On the technique in general: Time-resolved FRET reads energy transfer from a long-lived donor to a nearby acceptor.

Data set [2] concerns the target Ba/F3 HER2 A775_G776insYVMA cells (Homo sapiens, UniProt P04626, DUP772-775, cells depend on it). The data set is described as follows: Inhibition of cell proliferation, CTG method, Ba/F3 HER2 A775_G776insYVMA. The data set is classed as cell-based. Particulars: 72 hours, read-out: Ba/F3 HER2 A775-G776insYVMA IC50. A digest of the protocol: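 Ba/F3 HER2 A775_G776insYVMA cells in RPMI1640 with 10% FBS were plated at 3000 cells/well and treated directly with compound (top 10 μM, 4-fold, 9 concentrations, duplicates).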

For data set [3], the target named is Ba/F3 EGFR D770_N771insSVD cells (Homo sapiens, UniProt P00533, DUP768-770, cells depend on it). The data set is described as follows: Inhibition of cell proliferation, CTG method, Ba/F3 EGFR D770_N771insSVD. Format: cell-based. Particulars: 72 hours, read-out: Ba/F3 EGFR D770_N771insSVD IC50. An excerpt: The present application examined the in vitro anti-proliferative activity of the compounds of the present disclosure against in vitro cultured BT474, NCI-N87, Ba/F3-EGFR-VIII and Ba/F3 HER2 A775_G776insYVMA and Ba/F3 EGFR D770_N771insSVD cell lines by CTG method.
Chain of Ba/F3 EGFR D770_N771insSVD cells (P00533 with tags, fused parts or gaps DUP768-770): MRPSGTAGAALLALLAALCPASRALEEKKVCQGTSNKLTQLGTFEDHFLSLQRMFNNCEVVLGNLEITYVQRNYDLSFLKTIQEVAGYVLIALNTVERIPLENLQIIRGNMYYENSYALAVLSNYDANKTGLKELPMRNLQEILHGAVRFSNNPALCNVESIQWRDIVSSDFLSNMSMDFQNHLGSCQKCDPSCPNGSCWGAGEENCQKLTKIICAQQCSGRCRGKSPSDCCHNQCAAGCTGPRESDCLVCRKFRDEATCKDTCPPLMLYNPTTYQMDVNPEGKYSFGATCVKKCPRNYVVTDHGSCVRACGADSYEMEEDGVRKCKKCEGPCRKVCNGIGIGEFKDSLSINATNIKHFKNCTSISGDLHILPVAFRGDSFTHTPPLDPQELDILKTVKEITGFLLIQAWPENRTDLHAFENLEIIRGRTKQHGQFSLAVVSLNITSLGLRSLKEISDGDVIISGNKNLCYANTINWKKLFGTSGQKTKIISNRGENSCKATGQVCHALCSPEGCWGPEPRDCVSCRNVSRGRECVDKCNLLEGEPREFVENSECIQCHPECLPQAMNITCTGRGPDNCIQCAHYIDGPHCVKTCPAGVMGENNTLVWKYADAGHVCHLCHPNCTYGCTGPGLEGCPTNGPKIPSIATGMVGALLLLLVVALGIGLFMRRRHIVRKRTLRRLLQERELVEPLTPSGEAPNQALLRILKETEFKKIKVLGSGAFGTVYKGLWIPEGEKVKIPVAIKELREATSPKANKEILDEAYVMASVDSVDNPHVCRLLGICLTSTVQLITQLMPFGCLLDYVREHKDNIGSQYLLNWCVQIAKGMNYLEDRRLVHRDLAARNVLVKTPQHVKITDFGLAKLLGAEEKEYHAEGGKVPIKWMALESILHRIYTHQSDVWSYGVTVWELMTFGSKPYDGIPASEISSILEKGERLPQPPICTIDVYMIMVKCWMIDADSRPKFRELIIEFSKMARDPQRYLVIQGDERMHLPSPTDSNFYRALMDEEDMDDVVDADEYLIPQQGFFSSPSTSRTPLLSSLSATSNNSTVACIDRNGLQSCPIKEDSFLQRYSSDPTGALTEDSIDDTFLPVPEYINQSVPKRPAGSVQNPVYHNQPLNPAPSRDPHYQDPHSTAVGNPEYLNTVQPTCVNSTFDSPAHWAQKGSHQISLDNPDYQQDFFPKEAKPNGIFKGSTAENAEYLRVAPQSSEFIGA
Reagents and consumables: RPMI1640 (ThermoFisher, Cat. No. C11875500BT); fetal bovine serum (Hyclone, Cat. No. SV30087.03); 0.25% trypsin-EDTA (ThermoFisher, Cat. No. 25200-072); penicillin-streptomycin (Hyclone, Cat. No. SV30010); DMSO (Amresco, Cat. No. 0231-500ML); CTG assay kit (Promega, Cat. No. G924C); 96-well plate (Corning, Cat. No. 3603); multifunctional plate reader (Perkin Elmer, Cat. No. Envision)
Cell lines: BT474 (from the cell bank of Chinese Academy of Sciences), NCI-N87 (from ATCC), Ba/F3-EGFR-VIII, Ba/F3 HER2 A775_G776insYVMA and Ba/F3 EGFR D770_N771insSVD (all from KYinno Biotechnology (Beijing) Co., Ltd.); all of the above cells were cultured with RPMI1640 medium containing 10% fetal bovine serum, 100 U/mL penicillin, and 100 μg/mL streptomycin in the culture process.
1. The assay compound was dissolved with DMSO to form a stock solution and a gradient dilution was performed, followed by dilution with the corresponding medium to obtain a solution with 5-fold working concentration.
2. Cells in logarithmic growth phase were adjusted to specific cell densities by dilution with culture medium, and 80 μL of cell suspension was added to a 96-well plate, such that plating densities of cells of BT474, NCI-N87, Ba/F3-EGFR-VIII, Ba/F3 HER2 A775_G776insYVMA and Ba/F3 EGFR D770_N771insSVD were all 3000 cells/well. The cells of Ba/F3-EGFR-VIII, Ba/F3 HER2 A775_G776insYVMA and Ba/F3 EGFR D770_N771insSVD were used directly in the next step (treatment with compound), whereas the BT474 and NCI-N87 needed to be cultured overnight in a 37° C., 5% carbon dioxide gas incubator to adhere to the wall, and then treated with compounds.
3. 20 μL of compound solution was added to each well of the 96-well plate that had been inoculated with cells. The highest concentration of the assayed compound was 10 μM, 4-fold serial dilution, a total of 9 concentrations, and duplicate wells. A control group without compound was also set up.
4. The cells were cultured for another 72 hours, and then cell viability was detected by CTG assay kit. Signal values were read with a multifunctional plate reader (Perkin Elmer). GraphPad Prism software was used to create a dose-response curve and IC50 was calculated.

The nature of data set [4]: Pharmacokinetics in SD rats, single intravenous injection and oral administration. The data set is classed as in vivo, SD rat. Conditions: for AUC(0-inf) / AUC(0-t) / Vd / half-life / bioavailability / Cmax / Tmax: SD, rat, whole blood; for bioavailability: PO 10 mg/kg vs IV 3 mg/kg, read-out: F % (bioavailability). A digest of the protocol: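 SD rats received a single IV or oral dose of a solution formulation; the oral group was fasted overnight (>12 hrs) and fed 2 hrs post-dose, the IV group not fasted. Blood and brain were sampled at set times and analysed by LC/MS; CL, Vd, T1/2, Cmax, Tmax, AUC, MRT and F % come from plasma concentration-time data.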

Where [5] appears, read: NA: Exposure was too low to be counted.
Where [6] appears, read: PO 10 mg/kg, NA: Exposure was too low to be counted.

Each structure is given as a SMILES string.

Chain of Ba/F3 HER2 A775_G776insYVMA cells (P04626 with tags, fused parts or gaps DUP772-775): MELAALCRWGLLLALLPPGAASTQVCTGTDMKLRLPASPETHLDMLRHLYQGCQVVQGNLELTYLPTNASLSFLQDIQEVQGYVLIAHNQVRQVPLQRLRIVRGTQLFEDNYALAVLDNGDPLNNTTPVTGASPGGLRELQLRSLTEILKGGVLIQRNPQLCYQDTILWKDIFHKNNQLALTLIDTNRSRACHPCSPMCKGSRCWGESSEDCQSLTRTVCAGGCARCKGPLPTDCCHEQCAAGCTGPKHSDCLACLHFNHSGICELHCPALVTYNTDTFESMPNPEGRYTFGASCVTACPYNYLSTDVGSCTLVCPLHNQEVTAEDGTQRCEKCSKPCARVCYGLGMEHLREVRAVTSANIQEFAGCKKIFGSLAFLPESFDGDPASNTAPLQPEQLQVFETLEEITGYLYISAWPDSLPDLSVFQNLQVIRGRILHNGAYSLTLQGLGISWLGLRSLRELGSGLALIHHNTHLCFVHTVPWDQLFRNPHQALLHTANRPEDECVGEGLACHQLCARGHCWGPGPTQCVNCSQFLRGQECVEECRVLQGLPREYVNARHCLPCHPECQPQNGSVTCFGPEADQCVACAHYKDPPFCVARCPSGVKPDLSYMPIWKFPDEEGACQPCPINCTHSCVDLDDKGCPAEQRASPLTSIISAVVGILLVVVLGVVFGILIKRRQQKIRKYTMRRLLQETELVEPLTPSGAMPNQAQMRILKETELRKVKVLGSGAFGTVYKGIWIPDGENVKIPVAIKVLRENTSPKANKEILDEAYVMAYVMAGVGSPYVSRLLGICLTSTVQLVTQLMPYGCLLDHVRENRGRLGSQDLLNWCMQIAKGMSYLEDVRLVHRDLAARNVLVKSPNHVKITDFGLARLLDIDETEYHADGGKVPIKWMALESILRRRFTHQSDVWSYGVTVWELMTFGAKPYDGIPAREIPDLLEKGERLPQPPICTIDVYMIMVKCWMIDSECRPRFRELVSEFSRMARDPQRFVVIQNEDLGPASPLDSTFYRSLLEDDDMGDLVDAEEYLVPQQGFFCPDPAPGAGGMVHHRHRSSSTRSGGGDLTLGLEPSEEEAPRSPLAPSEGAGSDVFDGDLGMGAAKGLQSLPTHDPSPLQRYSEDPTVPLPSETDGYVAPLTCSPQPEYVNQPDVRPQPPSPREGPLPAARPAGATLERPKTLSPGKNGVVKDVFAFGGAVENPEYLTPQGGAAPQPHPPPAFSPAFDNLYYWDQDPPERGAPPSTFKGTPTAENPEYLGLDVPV
T1 sequence (P04626 23-1255): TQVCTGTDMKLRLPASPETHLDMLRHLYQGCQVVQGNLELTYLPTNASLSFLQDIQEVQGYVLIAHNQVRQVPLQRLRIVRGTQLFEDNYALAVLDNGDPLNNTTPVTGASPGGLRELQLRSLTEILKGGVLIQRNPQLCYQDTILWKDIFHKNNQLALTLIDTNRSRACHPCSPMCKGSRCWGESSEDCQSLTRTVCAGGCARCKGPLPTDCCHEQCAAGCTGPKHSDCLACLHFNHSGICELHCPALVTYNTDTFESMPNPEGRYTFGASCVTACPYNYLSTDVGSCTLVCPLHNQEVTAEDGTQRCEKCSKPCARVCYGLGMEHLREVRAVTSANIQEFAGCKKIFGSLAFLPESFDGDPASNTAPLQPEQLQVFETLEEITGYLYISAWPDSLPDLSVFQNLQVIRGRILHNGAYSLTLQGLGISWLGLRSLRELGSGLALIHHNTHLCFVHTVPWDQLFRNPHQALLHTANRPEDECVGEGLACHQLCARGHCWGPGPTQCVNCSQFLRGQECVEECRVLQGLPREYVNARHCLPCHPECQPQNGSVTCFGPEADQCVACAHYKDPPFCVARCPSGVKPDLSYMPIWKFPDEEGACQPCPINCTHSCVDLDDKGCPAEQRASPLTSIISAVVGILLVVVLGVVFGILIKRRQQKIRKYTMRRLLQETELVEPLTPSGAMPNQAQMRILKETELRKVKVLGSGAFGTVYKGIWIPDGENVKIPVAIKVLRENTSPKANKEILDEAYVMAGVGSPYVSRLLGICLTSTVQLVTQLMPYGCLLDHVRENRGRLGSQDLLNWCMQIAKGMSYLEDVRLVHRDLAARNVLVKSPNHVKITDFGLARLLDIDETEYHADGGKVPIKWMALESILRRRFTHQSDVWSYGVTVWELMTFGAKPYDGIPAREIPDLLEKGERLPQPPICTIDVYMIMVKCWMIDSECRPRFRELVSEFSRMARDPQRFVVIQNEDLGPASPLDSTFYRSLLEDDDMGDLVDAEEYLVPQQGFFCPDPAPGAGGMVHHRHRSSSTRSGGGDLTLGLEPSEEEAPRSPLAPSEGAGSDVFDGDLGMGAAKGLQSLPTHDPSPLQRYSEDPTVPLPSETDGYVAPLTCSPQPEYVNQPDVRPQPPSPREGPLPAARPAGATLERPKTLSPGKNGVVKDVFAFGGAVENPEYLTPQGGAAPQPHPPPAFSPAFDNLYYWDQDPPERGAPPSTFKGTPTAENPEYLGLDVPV

As usually defined, the IC50 is the concentration that inhibits the measured activity by half. Low values mean greater potency, high ones weaker potency. A word on the AUC(0-inf): it is total exposure, with the tail of the curve extrapolated. A higher AUC(0-inf) goes with high exposure. The AUC(0-t) is exposure summed from dosing to a finite time, without extrapolation to infinity. High values mean high exposure, low ones low exposure. Broadly, the half-life is the time needed for the level to fall by half in the phase considered. A higher half-life goes with slow loss. What is called bioavailability is the share of a dose that reaches the circulation, judged against a reference dose that is usually intravenous. In general, Cmax refers to the highest concentration seen after dosing. Broadly, the Tmax is the time from dosing to the highest level. Regarding `COc1c(NC(=O)/C=C/[C@H]2CCCN2C)ccc2ncnc(Nc3ccc(OCc4ccccn4)c(Cl)c3)c12` [Example 4, (R,E)-N-(4-((3-chloro-4-(pyridin-2-ylmethoxy)phenyl)amino)-5-methoxyquinazolin-6-yl)-3-(1-methylpyrrolidin-2-yl)acrylamide], the IC50 in data set [1] was less than 10 nM. For the same compound, the GI50 in data set [2] was less than 1 nM. For the same compound, the GI50 in data set [3] was in the range of 10 to 100 nM. In data set [4] (IV 3 mg/kg), this compound returned a Cl_obs of 52.1 ± 9.3 mL/min/kg, an AUC(0-inf) of 979 ± 161 ng·h/mL, an AUC(0-t) of 968 ± 156 ng·h/mL and a Vd of 20.2 ± 2.6 L/kg. In data set [4] (IV 3 mg/kg), this compound showed a half-life of 4.5 ± 0.21 h. Moreover, the bioavailability in data set [4] (setting [5]) was found to be 27.6 ± 6.8%. In data set [4] (setting [6]), the AUC(0-inf) was 902 ± 223 ng·h/mL, the AUC(0-t) turned out to be 888 ± 221 ng·h/mL, the concentration peaked (Cmax) at 65.7 ± 19.9 ng/mL and the Tmax was 5.33 ± 2.89 h. Further, the half-life in data set [4] (setting [6]) was 3.69 ± 0.31 h.

In data set [1], `COCCCOc1c(NC(=O)/C=C/[C@H]2CCCN2C)ccc2ncnc(Nc3ccc(OCc4ccccn4)c(Cl)c3)c12` [Example 9, (R,E)-N-(4-((3-chloro-4-(pyridin-2-ylmethoxy)phenyl)amino)-5-(3-methoxypropoxy)quinazolin-6-yl)-3-(1-methylpyrrolidin-2-yl)acrylamide] returned an IC50 of less than 10 nM. For the same compound, the GI50 in data set [2] was in the range of 1 to 5 nM. In addition, the GI50 in data set [3] was 10 to 100 nM. In data set [4] (IV 3 mg/kg), this compound gave a Cl_obs of 53.0 ± 6.7 mL/min/kg, an AUC(0-inf) of 955 ± 130 ng·h/mL, an AUC(0-t) of 949 ± 128 ng·h/mL and a Vd of 18 ± 2.3 L/kg. In addition, the half-life in data set [4] (IV 3 mg/kg) was 3.94 ± 0.18 h. Moreover, the bioavailability in data set [4] (setting [5]) is 34.9 ± 12.6%. In data set [4] (setting [6]), the AUC(0-inf) worked out at 1110 ± 403 ng·h/mL, the AUC(0-t) is 1100 ± 406 ng·h/mL, the Cmax came to 80.3 ± 30.5 ng/mL and the Tmax was 5 ± 3.46 h. In data set [4] (setting [6]), this compound gave a half-life of 4.13 ± 0.57 h.

Compound `CCN1CCC[C@@H]1/C=C/C(=O)Nc1ccc2ncnc(Nc3ccc(OCc4ccccn4)c(Cl)c3)c2c1OC` [Example 29, (R,E)-N-(4-((3-chloro-4-(pyridin-2-ylmethoxy)phenyl)amino)-5-methoxyquinazolin-6-yl)-3-(1-ethylpyrrolidin-2-yl)acrylamide] came in with an IC50 in data set [1] of less than 10 nM. In addition, the GI50 in data set [2] is less than 1 nM. Moreover, the GI50 in data set [3] was in the range of 10 to 100 nM. Moreover, in data set [4] (IV 3 mg/kg), the Cl_obs stood at 54.0 ± 7.4 mL/min/kg, the AUC(0-inf) was 938 ± 134 ng·h/mL, the AUC(0-t) amounted to 914 ± 129 ng·h/mL and the Vd is 22.7 ± 2.4 L/kg. For the same compound, in data set [4] (IV 3 mg/kg), the half-life is 4.86 ± 0.23 h. Moreover, the bioavailability in data set [4] (setting [5]) was found to be 36.3 ± 3.4%. For the same compound, in data set [4] (setting [6]), the AUC(0-inf) was 1130 ± 106 ng·h/mL, the AUC(0-t) is 1100 ± 107 ng·h/mL, the concentration peaked (Cmax) at 95.3 ± 16.5 ng/mL and the Tmax was found to be 3.33 ± 3.21 h. In addition, the half-life in data set [4] (setting [6]) is 4.63 ± 0.26 h.

Values taken from patent publication US20240246934A1, “QUINAZOLINE-BASED COMPOUND, COMPOSITION, AND APPLICATION OF QUINAZOLINE-BASED COMPOUND” (BEIJING SCITECH-MQ PHARMACEUTICALS LIMITED, priority 2021, published 2024).
